Columns and labels:
IMP-1 = IMP-1 (Serratia marcescens, UniProt P52699); test: biochemical; type: biochemical; details: CCF2-FA substrate, 2 hours at 25° C; read-out: IMP-1 IC50
How it was run: (§1)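 Enzyme activity was measured by fluorescence using CCF2-FA, a cephalosporin-linked 7-hydroxycoumarin/fluorescein substrate, with inhibitor, metallo-β-lactamase and substrate incubated together for 2 hours at 25° C. IC50 came from a 4-parameter fit of inhibition versus log inhibitor concentration.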

NDM-1 = NDM-1 (Klebsiella pneumoniae, UniProt C7C422); test: biochemical; type: biochemical; details: CCF2-FA substrate, 2 hours at 25° C; read-out: NDM-1 IC50
NDM-1, sequence (C7C422 whole entry, looked up, species assumed): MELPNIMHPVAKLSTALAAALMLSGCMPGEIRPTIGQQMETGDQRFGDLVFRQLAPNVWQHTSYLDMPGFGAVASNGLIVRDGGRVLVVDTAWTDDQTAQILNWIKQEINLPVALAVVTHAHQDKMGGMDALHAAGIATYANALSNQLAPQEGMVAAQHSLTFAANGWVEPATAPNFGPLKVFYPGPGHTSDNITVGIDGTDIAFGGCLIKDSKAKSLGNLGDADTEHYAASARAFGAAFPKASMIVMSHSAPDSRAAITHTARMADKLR
How it was run: as §1

VIM-1 = VIM-1 (Pseudomonas aeruginosa (strain ATCC 15692 / DSM 22644 / CIP 104116 / JCM 14847 / LMG 12228 / 1C / PRS 101 / PAO1), UniProt A0A0F7KYQ8); test: biochemical; details: CCF2-FA substrate, 2 hours at 25° C
How it was run: as §1

[1] = tested on: Escherichia coli expressing NDM-1 (CLB30005, CLB30016); type: cell-based; details: with imipenem 1 μg/ml; 95% inhibition of bacterial growth
How it was run: (§2)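 Restoration of imipenem susceptibility (1 μg/ml imipenem) was judged by absorbance after 22–24 h at 35° C. Test compound was added to bacteria suspended 1:100 in 1.1× CAMHB from overnight blood-agar cultures.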

[2] = tested on: Klebsiella pneumoniae expressing VIM-1 (IHMA599644); type: cell-based; details: with imipenem 1 μg/ml; 95% inhibition of bacterial growth
How it was run: as §2

[3] = tested on: Serratia marcescens expressing IMP-1 (CL5741); type: cell-based; details: with imipenem 1 μg/ml; 95% inhibition of bacterial growth
How it was run: as §2

[4] = tested on: P. aeruginosa expressing IMP-1, efflux+ (MB9798); type: cell-based, Pseudomonas aeruginosa; details: for P. aeruginosa expressing IMP-1, efflux+ (MB9798) MITC95: imipenem at 2 μg/mL, in the presence of a class A, C, D serine β-lactamase inhibitor closely related to relebactam; for Efflux ratio: ratio MITC95 PA_9798/MITC95 PA_9799
From the text: (§3) The strain background is Pseudomonas aeruginosa PAO1.

[5] = tested on: P. aeruginosa expressing IMP-1, efflux− (MB9799); test: Efflux: concentration of MBL inhibitor which restores susceptibility to imipenem; type: cell-based, Pseudomonas aeruginosa; details: imipenem at 2 μg/mL, in the presence of a class A, C, D serine β-lactamase inhibitor closely related to relebactam
From the text: as §3

IMP-1, sequence (P52699 whole entry, looked up, species assumed): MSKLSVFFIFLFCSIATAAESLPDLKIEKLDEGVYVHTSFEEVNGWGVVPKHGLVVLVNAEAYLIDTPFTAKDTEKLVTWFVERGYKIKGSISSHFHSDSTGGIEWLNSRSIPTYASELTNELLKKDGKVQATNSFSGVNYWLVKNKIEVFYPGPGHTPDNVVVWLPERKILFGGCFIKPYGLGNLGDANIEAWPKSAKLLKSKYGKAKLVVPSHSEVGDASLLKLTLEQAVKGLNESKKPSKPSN

| Compound | IC50 (IMP-1) [nM] | IC50 (NDM-1) [nM] | IC50 (VIM-1) [nM] | Escherichia coli expressing NDM-1 (CLB30016) MITC95 [1] [µM] | Klebsiella pneumoniae expressing VIM-1 (IHMA599644) MITC95 [2] [µM] | Serratia marcescens expressing IMP-1 (CL5741) MITC95 [3] [µM] | P. aeruginosa expressing IMP-1, efflux+ (MB9798) MITC95 [4] [µM] | Efflux ratio [4] | P. aeruginosa expressing IMP-1, efflux− (MB9799) MITC95 [5] [µM] |
| --- | --- | --- | --- | --- | --- | --- | --- | --- | --- |
| COc1cc(-c2ccc(S(=O)(=O)CCN)c(S(N)(=O)=O)c2-c2nnn[nH]2)cnc1N.O=C(O)C(F)(F)F [Example 169, 2-((4-(6-amino-5-methoxypyridin-3-yl)-2-sulfamoyl-3-(1H-tetrazol-5-yl)phenyl)sulfonyl)ethanaminium 2,2,2-trifluoroacetate] | 5.27 | 6 | 1.03 | 0.7813 | 6.25 | 3.125 | 25 | 15.99 | 1.563 |
| Cc1nc(N)ccc1-c1ccc(S(=O)(=O)CCN)c(S(N)(=O)=O)c1-c1nnn[nH]1.O=C(O)C(F)(F)F [Example 170, 2-((4-(6-amino-2-methylpyridin-3-yl)-2-sulfamoyl-3-(1H-tetrazol-5-yl)phenyl)sulfonyl)ethanaminium 2,2,2-trifluoroacetate] | 2.87 | 3.48 | 1.01 | 0.3906 | 3.125 | 0.7813 | 6.25 | 4.00 | 1.563 |
| NCCS(=O)(=O)c1ccc(-c2cccc3cnccc23)c(-c2nnn[nH]2)c1S(N)(=O)=O.O=C(O)C(F)(F)F [Example 171] | 1.02 | 0.306 | 0.272 | 1.563 | 6.25 | 3.125 | 12.5 | 8.00 | 1.563 |
| Cc1cc(-c2ccc(S(=O)(=O)CCN)c(S(N)(=O)=O)c2-c2nnn[nH]2)cnc1N.O=C(O)C(F)(F)F [Example 172, 2-((4-(6-amino-5-methylpyridin-3-yl)-2-sulfamoyl-3-(1H-tetrazol-5-yl)phenyl)sulfonyl)ethanaminium 2,2,2-trifluoroacetate] | 4.9 | 2.98 | 0.193 | 0.25 | 3.125 | 1.281 | 6.25 | 3.51 | 1.781 |
| NCCS(=O)(=O)c1ccc(-c2cccc3cn[nH]c23)c(-c2nnn[nH]2)c1S(N)(=O)=O.O=C(O)C(F)(F)F [Example 173, 2-((4-(1H-indazol-7-yl)-2-sulfamoyl-3-(1H-tetrazol-5-yl)phenyl)sulfonyl)ethanaminium 2,2,2-trifluoroacetate] | 0.16 | 0.338 | 0.264 | 0.25 | 0.8906 | 0.8906 | 0.8906 | 2.00 | 0.4453 |
| NCCS(=O)(=O)c1ccc(-c2ccc3scnc3c2)c(-c2nnn[nH]2)c1S(N)(=O)=O.O=C(O)C(F)(F)F [Example 174, 2-((4-(benzo[d]thiazol-5-yl)-2-sulfamoyl-3 (1H-tetrazol-5-yl)phenyl)sulfonyl)ethanaminium 2,2,2-trifluoroacetate] | 0.22 | 0.392 | 0.14 | 0.3906 | 1.563 | 0.7813 | 3.125 | 8.00 | 0.3906 |
| Nc1nc2cccc(-c3ccc(S(=O)(=O)[C@H]4C[C@H](N)C4)c(S(N)(=O)=O)c3-c3nn[nH]n3)c2[nH]1 [Example 175, 3-(2-amino-3H-benzo[d]imidazol-4-yl)-6-((1r,3r)-3-aminocyclobutylsulfonyl)-2-(2H-tetrazol-5-yl)benzenesulfonamide] | 2.2 | 0.149 | 0.478 | 0.7813 | 1.563 | 1.563 | 0.7813 | 1.00 | 0.7813 |
| Nc1nc2cccc(-c3ccc(S(=O)(=O)[C@H]4C[C@@H](N)C4)c(S(N)(=O)=O)c3-c3nn[nH]n3)c2[nH]1 [Example 176, 3-(2-amino-3H-benzo[d]imidazol-4-yl)-6-((1s, 3s)-3-aminocyclobutylsulfonyl)-2-(2H-tetrazol-5-yl)benzenesulfonamide] | 1.09 | 0.25 | 0.831 | 0.7813 | 1.563 | 0.7813 | 0.7813 | 1.00 | 0.7813 |
| Nc1nc2cccc(-c3ccc(S(=O)(=O)[C@H]4CC[C@@H](N)CC4)c(S(N)(=O)=O)c3-c3nn[nH]n3)c2[nH]1 [Example 177, 3-(2-amino-3H-benzo[d]imidazol-4-yl)-6-((1s,4s)-4-aminocyclohexylsulfonyl)-2-(2H-tetrazol-5-yl)benzenesulfonamide] | 1.35 | 0.264 | 0.293 | 0.7813 | 1.563 | 0.7813 | 0.7813 | 1.00 | 0.7813 |
| Nc1nc2cccc(-c3ccc(S(=O)(=O)[C@H]4CC[C@H](N)CC4)c(S(N)(=O)=O)c3-c3nn[nH]n3)c2[nH]1 [Example 178, 3-(2-amino-3H-benzo[d]imidazol-4-yl)-6-((1r,4r)-4-aminocyclohexylsulfonyl)-2-(2H-tetrazol-5-yl)benzenesulfonamide] | 0.99 | 0.275 | 0.66 | 0.3906 | 1.563 | 0.7813 | 0.7813 | 1.00 | 0.7813 |
| Nc1nc2c(-c3ccc(S(=O)(=O)[C@H]4C[C@H](N)C4)c(S(N)(=O)=O)c3-c3nn[nH]n3)cccc2s1 [Example 179] | 0.135 | 0.106 | 0.322 | 0.7813 | 1.563 | 1.563 | 0.7813 | 0.50 | 1.563 |
| Nc1nc2c(-c3ccc(S(=O)(=O)[C@H]4C[C@@H](N)C4)c(S(N)(=O)=O)c3-c3nn[nH]n3)cccc2s1 [Example 180, 3-(2-aminobenzo[d]thiazol-4-yl)-6-((1s,3s)-3-aminocyclobutylsulfonyl)-2-(2H-tetrazol-5-yl)benzenesulfonamide] | 0.26 | 0.0833 | 0.196 | 3.125 | 3.125 | 1.563 | 0.7813 | 1.00 | 0.7813 |
| Nc1nc2cccc(-c3ccc(S(=O)(=O)[C@@H]4CCNC4)c(S(N)(=O)=O)c3-c3nn[nH]n3)c2[nH]1 [Example 181, 3-(2-amino-3H-benzo[d]imidazol-4-yl)-6-((R)-pyrrolidin-3-ylsulfonyl)-2-(2H-tetrazol-5-yl)benzenesulfonamide] | 0.807 | 0.149 | 0.42 | 0.3203 | 0.8542 | 0.6875 | 0.6875 | 1.00 | 0.6875 |

— US10227331B2 (priority 2015, dated 2019)
